Results as given in patent US20140113898A1, “BISARYLSULFONE AND DIALKYLARYLSULFONE COMPOUNDS AS CALCIUM CHANNEL BLOCKERS” (Zalicus Pharmaceuticals Ltd., priority 2010, published 2014).
Read-outs that look alike come from different tables or passages of the source.

How the values were obtained:
Format in all cases: cell-based
CaV2.2 = biological target: T1, CaV2.2 (Homo sapiens, UniProt Q00975); assay: High-throughput CaV2.2/Kir2.3 FLIPR fluorescent assay; details: Fluo-4 FLIPR, closed or inactivated state not stated, read-out: FLIPR data CaV2.2
T1 construct: expressed in transfected cells; host or cells: unnamed doxycycline-inducible cell line
In short: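 Doxycycline-induced cells moved to 29 °C on assay day and were loaded with 4.4 μM Fluo-4. They were held in 2 mM KCl (closed state) or 12.5 mM KCl (inactivated state) buffer, pH 7.4, then depolarized with 130 mM KCl. Fluorescence was read 3 min on FLIPR, and IC50 was obtained from logistic fits.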

CaV3.1 = biological target: T2, CaV3.1 (Homo sapiens, UniProt O43497); assay: High-throughput CaV3.1 T-type FLIPR fluorescent assay; details: Fluo-4 FLIPR
T2 construct: expressed in transfected cells; host or cells: unnamed doxycycline-inducible cell line
T2 sequence (O43497 whole entry): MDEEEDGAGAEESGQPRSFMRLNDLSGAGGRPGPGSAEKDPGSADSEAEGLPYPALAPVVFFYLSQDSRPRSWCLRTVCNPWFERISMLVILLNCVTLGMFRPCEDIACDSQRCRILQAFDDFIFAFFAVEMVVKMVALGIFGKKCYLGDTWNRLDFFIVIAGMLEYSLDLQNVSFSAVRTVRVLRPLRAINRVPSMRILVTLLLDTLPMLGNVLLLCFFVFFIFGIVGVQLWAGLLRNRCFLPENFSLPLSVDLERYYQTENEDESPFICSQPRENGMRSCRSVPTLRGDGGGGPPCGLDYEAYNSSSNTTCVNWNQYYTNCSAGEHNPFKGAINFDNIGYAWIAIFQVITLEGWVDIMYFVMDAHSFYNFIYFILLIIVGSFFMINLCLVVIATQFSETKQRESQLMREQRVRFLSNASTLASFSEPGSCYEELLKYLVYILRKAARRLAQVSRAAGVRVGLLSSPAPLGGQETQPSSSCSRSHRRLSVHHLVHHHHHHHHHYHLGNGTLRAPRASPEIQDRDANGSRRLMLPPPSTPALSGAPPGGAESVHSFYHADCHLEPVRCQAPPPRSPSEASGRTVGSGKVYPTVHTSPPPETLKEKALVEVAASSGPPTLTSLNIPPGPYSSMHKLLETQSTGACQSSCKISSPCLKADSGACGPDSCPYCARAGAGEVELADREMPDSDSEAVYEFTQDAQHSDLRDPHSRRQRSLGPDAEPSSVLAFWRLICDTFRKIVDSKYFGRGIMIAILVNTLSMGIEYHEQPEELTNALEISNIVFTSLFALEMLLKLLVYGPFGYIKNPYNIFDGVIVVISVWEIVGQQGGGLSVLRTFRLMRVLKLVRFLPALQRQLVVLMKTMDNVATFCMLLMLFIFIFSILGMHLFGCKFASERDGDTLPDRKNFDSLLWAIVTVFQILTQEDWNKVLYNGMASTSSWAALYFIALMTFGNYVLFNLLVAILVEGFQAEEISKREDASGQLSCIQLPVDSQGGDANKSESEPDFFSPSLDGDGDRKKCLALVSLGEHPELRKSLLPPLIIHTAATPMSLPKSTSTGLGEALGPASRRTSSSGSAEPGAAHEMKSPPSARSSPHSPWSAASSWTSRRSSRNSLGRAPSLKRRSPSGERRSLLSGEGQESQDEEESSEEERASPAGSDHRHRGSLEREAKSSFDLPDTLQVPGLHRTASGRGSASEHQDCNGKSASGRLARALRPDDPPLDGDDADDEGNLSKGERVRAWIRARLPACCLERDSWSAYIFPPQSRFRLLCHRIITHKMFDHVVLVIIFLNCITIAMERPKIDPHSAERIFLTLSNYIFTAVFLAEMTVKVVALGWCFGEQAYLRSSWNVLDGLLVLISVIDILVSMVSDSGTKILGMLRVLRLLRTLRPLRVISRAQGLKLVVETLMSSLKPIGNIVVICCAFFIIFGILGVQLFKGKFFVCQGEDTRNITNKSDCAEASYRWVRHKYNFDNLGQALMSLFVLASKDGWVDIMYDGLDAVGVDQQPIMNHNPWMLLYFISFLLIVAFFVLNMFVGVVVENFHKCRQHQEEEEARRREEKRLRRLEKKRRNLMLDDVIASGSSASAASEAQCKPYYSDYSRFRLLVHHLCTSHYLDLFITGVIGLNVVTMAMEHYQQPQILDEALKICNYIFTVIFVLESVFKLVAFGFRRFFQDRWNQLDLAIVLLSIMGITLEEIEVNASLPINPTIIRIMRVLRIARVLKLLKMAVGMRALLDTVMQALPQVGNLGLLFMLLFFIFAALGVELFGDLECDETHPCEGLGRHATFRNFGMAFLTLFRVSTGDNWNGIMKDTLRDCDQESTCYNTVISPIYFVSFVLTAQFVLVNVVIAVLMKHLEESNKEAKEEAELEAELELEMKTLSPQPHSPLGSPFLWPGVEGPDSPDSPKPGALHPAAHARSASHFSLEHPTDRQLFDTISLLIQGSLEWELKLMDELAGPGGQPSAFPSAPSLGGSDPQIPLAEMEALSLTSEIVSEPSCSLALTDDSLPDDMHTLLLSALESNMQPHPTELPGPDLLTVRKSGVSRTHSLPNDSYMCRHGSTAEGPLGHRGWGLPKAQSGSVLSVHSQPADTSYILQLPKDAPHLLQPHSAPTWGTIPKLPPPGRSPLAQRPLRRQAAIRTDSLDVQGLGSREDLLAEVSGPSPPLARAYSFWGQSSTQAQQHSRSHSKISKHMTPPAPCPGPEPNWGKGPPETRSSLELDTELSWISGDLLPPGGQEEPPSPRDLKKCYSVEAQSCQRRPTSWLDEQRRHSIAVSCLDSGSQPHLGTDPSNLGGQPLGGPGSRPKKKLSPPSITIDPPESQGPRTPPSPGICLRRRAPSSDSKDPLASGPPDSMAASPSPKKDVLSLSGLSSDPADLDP
In short: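 Doxycycline-induced CaV3.1 cells were loaded with Fluo-4 at 29 °C and pre-incubated with compound for 20 min at 29 °C in low-Ca2+ buffer (0.001 mM CaCl2, pH 7.2). Calcium entry was triggered by buffer containing 6 mM CaCl2, and Fluo-4 fluorescence was recorded on FLIPR for 3 min. IC50 came from logistic fits.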

CaV3.2 = biological target: T3, CaV3.2 (Homo sapiens, UniProt O95180); assay: High-throughput CaV3.2/Kir2.3 T-type FLIPR fluorescent assay; details: Fluo-4 FLIPR, closed or inactivated state not stated
T3 construct: expressed in transfected cells; host or cells: unnamed doxycycline-inducible cell line
T3 sequence (O95180 whole entry): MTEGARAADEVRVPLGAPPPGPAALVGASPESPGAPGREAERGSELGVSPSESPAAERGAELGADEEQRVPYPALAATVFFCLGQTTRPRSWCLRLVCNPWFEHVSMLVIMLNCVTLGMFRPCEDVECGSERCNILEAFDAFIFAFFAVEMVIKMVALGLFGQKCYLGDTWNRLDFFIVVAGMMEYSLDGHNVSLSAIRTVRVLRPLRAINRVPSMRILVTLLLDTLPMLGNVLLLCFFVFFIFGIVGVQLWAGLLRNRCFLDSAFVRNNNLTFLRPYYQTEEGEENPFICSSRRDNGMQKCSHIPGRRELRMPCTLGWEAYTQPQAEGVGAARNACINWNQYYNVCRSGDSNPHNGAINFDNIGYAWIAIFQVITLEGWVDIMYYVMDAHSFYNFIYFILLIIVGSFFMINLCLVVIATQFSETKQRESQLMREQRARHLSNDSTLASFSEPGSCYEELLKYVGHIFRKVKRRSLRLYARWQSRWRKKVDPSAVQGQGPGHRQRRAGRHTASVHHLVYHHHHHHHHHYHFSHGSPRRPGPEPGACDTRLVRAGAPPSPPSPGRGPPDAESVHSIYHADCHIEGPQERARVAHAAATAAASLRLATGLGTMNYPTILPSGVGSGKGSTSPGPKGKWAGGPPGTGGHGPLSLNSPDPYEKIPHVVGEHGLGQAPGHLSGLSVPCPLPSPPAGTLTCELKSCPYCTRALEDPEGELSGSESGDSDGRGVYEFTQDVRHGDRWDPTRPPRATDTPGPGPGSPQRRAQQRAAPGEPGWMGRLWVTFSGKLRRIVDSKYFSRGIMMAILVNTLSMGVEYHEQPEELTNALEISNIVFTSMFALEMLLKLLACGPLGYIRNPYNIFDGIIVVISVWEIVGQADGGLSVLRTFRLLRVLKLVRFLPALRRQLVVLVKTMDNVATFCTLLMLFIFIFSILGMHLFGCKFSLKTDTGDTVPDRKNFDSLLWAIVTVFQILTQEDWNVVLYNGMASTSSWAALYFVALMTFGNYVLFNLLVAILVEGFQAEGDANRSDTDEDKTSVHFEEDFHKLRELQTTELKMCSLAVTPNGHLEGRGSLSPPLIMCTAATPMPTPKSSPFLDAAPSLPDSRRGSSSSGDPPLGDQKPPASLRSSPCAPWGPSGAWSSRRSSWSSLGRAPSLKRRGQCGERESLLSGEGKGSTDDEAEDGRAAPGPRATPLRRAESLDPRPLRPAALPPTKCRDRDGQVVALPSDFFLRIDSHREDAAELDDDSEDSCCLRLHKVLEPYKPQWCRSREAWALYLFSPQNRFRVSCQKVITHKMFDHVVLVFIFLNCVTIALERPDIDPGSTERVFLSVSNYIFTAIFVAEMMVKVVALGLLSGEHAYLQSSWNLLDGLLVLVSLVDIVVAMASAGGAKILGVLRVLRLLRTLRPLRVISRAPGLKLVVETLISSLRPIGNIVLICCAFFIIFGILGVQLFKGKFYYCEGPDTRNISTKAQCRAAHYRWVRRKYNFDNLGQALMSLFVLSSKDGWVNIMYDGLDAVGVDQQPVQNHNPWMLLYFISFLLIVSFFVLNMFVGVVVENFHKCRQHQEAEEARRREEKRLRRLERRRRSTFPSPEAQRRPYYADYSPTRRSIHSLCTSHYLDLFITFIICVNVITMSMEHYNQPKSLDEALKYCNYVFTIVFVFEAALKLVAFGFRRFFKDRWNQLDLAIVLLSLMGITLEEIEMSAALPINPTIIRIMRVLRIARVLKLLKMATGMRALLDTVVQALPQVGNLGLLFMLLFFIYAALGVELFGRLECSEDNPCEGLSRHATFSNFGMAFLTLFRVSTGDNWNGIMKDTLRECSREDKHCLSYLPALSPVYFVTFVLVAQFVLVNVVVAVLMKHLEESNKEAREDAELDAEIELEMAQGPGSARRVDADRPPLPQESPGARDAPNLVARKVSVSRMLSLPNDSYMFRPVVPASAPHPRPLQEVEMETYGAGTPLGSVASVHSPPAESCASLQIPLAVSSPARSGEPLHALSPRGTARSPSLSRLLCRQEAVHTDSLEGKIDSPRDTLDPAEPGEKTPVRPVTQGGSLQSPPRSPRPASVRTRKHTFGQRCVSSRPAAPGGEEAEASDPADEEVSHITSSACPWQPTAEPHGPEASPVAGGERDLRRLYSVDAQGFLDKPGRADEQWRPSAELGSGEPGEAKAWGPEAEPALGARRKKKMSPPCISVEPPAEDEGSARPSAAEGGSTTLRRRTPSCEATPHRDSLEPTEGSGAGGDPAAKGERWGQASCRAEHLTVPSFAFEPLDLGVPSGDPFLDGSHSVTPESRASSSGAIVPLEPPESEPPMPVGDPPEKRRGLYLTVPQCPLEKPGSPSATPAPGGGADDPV
In short: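 Doxycycline-induced cells loaded with Fluo-4, preincubated 20 min at 29°C with compound in 2 mM KCl (closed-state) or 7.6 mM KCl (inactivated-state) buffer, pH 7.4. Calcium entry triggered by 12 mM or 14.5 mM KCl respectively; fluorescence read 3 min by FLIPR, IC50 from logistic fit.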

| IC50 (CaV2.2; Table 4) [nM] | IC50 (CaV3.1; Table 4) [nM] | IC50 (CaV3.2; Table 4) [nM] | IC50 (CaV2.2; Table 5) [nM] | IC50 (CaV3.1; Table 5) [nM] | IC50 (CaV3.2; Table 5) [nM] | SMILES |
| --- | --- | --- | --- | --- | --- | --- |
| 300 | 2020 | 740 |  |  |  | O=C(NCc1ccc(S(=O)(=O)c2cccc(C(F)(F)F)c2)cc1)c1cn2cc(C(F)(F)F)ccc2n1 [Compound 13, 6-(trifluoromethyl)-N-(4-((3-(trifluoromethyl)phenyl)sulfonyl)benzyl)imidazo[1,2-a]pyridine-2-carboxamide] |
|  |  |  | 1160 | 8690 | 7580 | CC(C)(C(=O)N1CCN(c2cc(Cl)cc(Cl)c2)CC1)S(=O)(=O)c1cccc(C(F)(F)F)c1 [Compound 134, 1-(4-(3,5-dichlorophenyl)piperazin-1-yl)-2-methyl-2-((3-(trifluoromethyl)phenyl)sulfonyl)propan-1-one] |
| 640 | 2890 | 3240 |  |  |  | CS(=O)(=O)c1cc(C(=O)NCc2ccccc2S(=O)(=O)c2cccc(C(F)(F)F)c2)cc(C(F)(F)F)n1 [Compound 42, 2-(methylsulfonyl)-6-(trifluoromethyl)-N-(2-((3-(trifluoromethyl)phenyl)sulfonyl)benzyl)isonicotinamide] |
| 100 | 920 | 1010 |  |  |  | CC(C)S(=O)(=O)c1cc(C(F)(F)F)cnc1C(=O)NCc1ccc(S(=O)(=O)c2cccc(C(F)(F)F)c2)cc1 [Compound 33, 3-(isopropylsulfonyl)-5-(trifluoromethyl)-N-(4-((3-(trifluoromethyl)phenyl)sulfonyl)benzyl)picolinamide] |
| 140 | 1630 | 940 |  |  |  | O=C(NCc1cccc(S(=O)(=O)c2cccc(C(F)(F)F)c2)c1)c1ccc(Cl)c(F)c1 [Compound 17, 4-chloro-3-fluoro-N-(3-((3-(trifluoromethyl)phenyl)sulfonyl)benzyl)benzamide] |
| 510 | 2140 | 920 |  |  |  | O=C(NCc1ccc(S(=O)(=O)c2cccc(C(F)(F)F)c2)cc1)c1cnc(C(F)(F)F)nc1 [Compound 8, 2-(trifluoromethyl)-N-(4-((3-(trifluoromethyl)phenyl)sulfonyl)benzyl)pyrimidine-5-carboxamide] |
| 680 | 8240 | 4560 |  |  |  | N[C@@H]1CCCC[C@H]1C(=O)NCc1ccc(S(=O)(=O)c2cccc(C(F)(F)F)c2)cc1 [Compound 81, (1R,2R)-2-amino-N-(4-((3-(trifluoromethyl)phenyl)sulfonyl)benzyl)cyclohexanecarboxamide] |
| 810 | 900 | 810 |  |  |  | O=C(NCc1ccc(S(=O)(=O)c2cccc(C(F)(F)F)c2)cn1)c1ccc(Cl)c(F)c1 [Compound 88, 4-chloro-3-fluoro-N-((5-((3-(trifluoromethyl)phenyl)sulfonyl)pyridin-2-yl)methyl)benzamide] |
| 610 | 900 | 2070 |  |  |  | O=C(NCc1ccc(S(=O)(=O)c2cccc(C(F)(F)F)c2)cn1)c1ccc(C(F)(F)F)nc1 [Compound 90, 6-(trifluoromethyl)-N-((5-((3-(trifluoromethyl)phenyl)sulfonyl)pyridin-2-yl)methyl)nicotinamide] |
| 410 | 3240 | 550 |  |  |  | CS(=O)(=O)c1cc(C(F)(F)F)cnc1C(=O)NCc1cccc(S(=O)(=O)c2cccc(C(F)(F)F)c2)c1 [Compound 24, 3-(methylsulfonyl)-5-(trifluoromethyl)-N-(3-((3-(trifluoromethyl)phenyl)sulfonyl)benzyl)picolinamide] |
| 710 | 2340 | 1510 |  |  |  | CS(=O)(=O)c1nc(C(F)(F)F)ccc1C(=O)NCc1ccc(S(=O)(=O)c2cccc(C(F)(F)F)c2)cc1 [Compound 6, 2-(methylsulfonyl)-6-(trifluoromethyl)-N-(4-((3-(trifluoromethyl)phenyl)sulfonyl)benzyl)nicotinamide] |
| 390 | 1750 | 730 |  |  |  | O=C(NCc1cccc(S(=O)(=O)c2cccc(C(F)(F)F)c2)c1)c1ccnc(C(F)(F)F)c1 [Compound 31, 2-(trifluoromethyl)-N-(3-((3-(trifluoromethyl)phenyl)sulfonyl)benzyl)isonicotinamide] |
|  |  |  | 1290 | 7950 | 5840 | CN(CCc1c[nH]c2ccc(F)cc12)C(=O)C(C)(C)S(=O)(=O)c1cccc(C(F)(F)F)c1 [Compound 135, N-(2-(5-fluoro-1H-indol-3-yl)ethyl)-N,2-dimethyl-2-((3-(trifluoromethyl)phenyl)sulfonyl)propanamide] |
| 450 | 1480 | 380 |  |  |  | O=C(NCc1ccc(S(=O)(=O)c2cccc(C(F)(F)F)c2)cc1)c1ccc(C(F)(F)F)cn1 [Compound 4, 5-(trifluoromethy)-N-(4-((3-(trifluoromethyl)phenyl)sulfonyl)benzyl)picolinamide] |
|  |  |  | 110 | 1410 | 1200 | CC(C)(C(=O)NCc1cccc(S(=O)(=O)c2cccc(C(F)(F)F)c2)c1)S(=O)(=O)c1cccc(C(F)(F)F)c1 [Compound 226, 2-methyl-2-((3-(trifluoromethyl)phenyl)sulfonyl)-N-(3-((3-(trifluoromethyl)phenyl)sulfonyl)benzyl)propanamide] |
|  |  |  | 1210 | 4080 | 3630 | CC(C)(C(=O)N1CCN(c2cccc(C(F)(F)F)c2)CC1)S(=O)(=O)c1cccc(C(F)(F)F)c1 [Compound 132, 2-methyl-1-(4-(3-(trifluoromethyl)phenyl)piperazin-1-yl)-2-((3-(trifluoromethyl)phenyl)sulfonyl)propan-1-one] |
